Source: patent US10130585B2, “Methods of treating and/or preventing cardiovascular disease” (Murray and Poole Enterprises Limited, priority 2013, dated 2018)

Columns and labels:
[1] = tested on: patients with a first episode of recurrent pericarditis; conditions: conventional treatment with aspirin plus colchicine 1.0-2.0 mg first day then 0.5-1.0 mg/d for 6 months; cited from earlier work
[2] = tested on: patients with stable coronary disease; assay: LoDoCo Trial, colchicine 0.5 mg/day added to standard secondary prevention; assay type: in vivo, human
Experimental: This study is described in PCT/AU2013/001261 and is hereby incorporated in its entirety by reference.
All outcomes were evaluated by an experienced adjudicator blinded to the treatment allocation.
Patients with a history of bypass surgery were only eligible if they had undergone bypass surgery more than 10 years before, or had angiographic evidence of graft failure or had undergone stenting since their bypass surgery. All patients signed informed consent before randomization.
The randomization sequence was computer generated, kept concealed from the investigators at all times and was managed by a research assistant who had no involvement in the evaluation or management of study patients. Once the assistant received the consent form, the patients' demographic data were entered into the data base and the investigators and patients were advised in writing of the treatment group to which the patient had been assigned. […] Patients who were intolerant to therapy remained in the study, and were followed in the usual manner and included in the primary intention to treat analysis.
The drug was dispensed by their usual chemist, and if requested, patients were reimbursed for the cost of these scripts. All other treatments were continued as usual.
Patient compliance with treatment and outcome data were collected at routine follow up visits and at the time of any unplanned hospital admission. An acute coronary syndrome (ACS) was defined as either (a) Acute Myocardial Infarction (AMI), as evidenced by acute ischemic chest pain associated with a rise in serum troponin above the upper limit of normal or (b) Unstable Angina (UA), as evidenced by a recent acceleration of the patient's angina unassociated with a rise in serum troponin but associated with angiographic evidence of a change in the patient's coronary anatomy. (Unstable Angina Braunwald classification types IB and IIB). The ACS was characterized as being stent-related if there was evidence of significant in-stent stenosis or acute stent thrombosis. Out of Hospital Cardiac Arrest was defined as either a sudden death as evidenced on the patient's death certificate, or a non-fatal out of hospital cardiac arrest, defined as a recovery from sudden collapse associated with documented asystole, ventricular tachycardia or ventricular fibrillation. Noncardioembolic ischemic stroke was defined as CT or MRI proven ischemic stroke adjudged by the treating neurologist as not being due to atrial fibrillation or intracranial hemorrhage.
The primary efficacy outcome was the composite, ACS, fatal or non-fatal out of hospital cardiac arrest or non-cardio-embolic ischemic stroke. Secondary outcomes were (a) individual components of the primary outcome, and (b) the components of ACS unrelated to stent disease.
The pre-specified study duration was a minimum follow up of two years in all patients. Accordingly the study was closed on May 31, 2012. During May, all living patients were contacted by phone to collect compliance and outcome data from the last date of follow-up. Final outcome data were available in all patients and no patients were lost to follow up.
Summary statistics, including mean and standard deviation were calculated for all baseline characteristics by treatment arm. All time to event outcomes were calculated in days by subtracting the date of randomization from either: (1) the date of event or death; or (2) the trial termination date for those patients not experiencing the defined event. […]

COc1cc2c(c(OC)c1OC)-c1ccc(OC)c(=O)cc1[C@@H](NC(C)=O)CC2 [colchicine, N[5,6,7,9-tetrahydro-1,2,3,10-tetratmethoxy 9-oxobenzo[a]heptalen-7-yl],(S)-acetamide]
recurrence rate, actuarial rate at 18 months [1]: 24.0%
number needed to treat, primary outcome ([2]; colchicine 0.5 mg/day vs control): 11
patients who died ([2]; colchicine group (n=282), all of non-cardiac causes): 4 patients
patients reporting early intolerance due to gastrointestinal side effects ([2]; of 282 randomized to colchicine 0.5 mg/day): 11%
patients with events, on-treatment analysis ([2]; patients compliant and tolerant to therapy beyond the first month): 4.5%
Out of hospital cardiac arrest and non-cardio-embolic ischemic stroke ([2]; treatment group vs control): also reduced in the treatment group
